Where two headings read alike, the source gives them in different places.
Assays:
[1] = rcm bond, DCE
[2] = rcm bond, 14-membered ring, Hoveyda-Grubbs II, DCE
[3] = test system: HCV replicons (Huh-7 luc/neo cells, NS3-NS5B regions of HCV type 1b); experiment: Replicon assay: inhibition of HCV RNA replication in Huh-Luc cells (luciferase read-out); type: cell-based; conditions: HCV type 1b replicon, luciferase activity after three days
Experimental: The in vitro antiviral activity against HCV of the compounds of formula (I) was tested in a cellular HCV replicon system based on Lohmann et al. (1999) Science 285:110-113, with the further modifications described by Krieger et al. (2001) Journal of Virology 75: 4614-4624 (incorporated herein by reference), which is further exemplified in the examples section. This model, while not a complete infection model for HCV, is widely accepted as the most robust and efficient model of autonomous HCV RNA replication currently available. […] It will be appreciated that it is important to distinguish between compounds that specifically interfere with HCV functions from those that exert cytotoxic or cytostatic effects in the HCV replicon model, and as a consequence cause a decrease in HCV RNA or linked reporter enzyme concentration. Assays are known in the field for the evaluation of cellular cytotoxicity based for example on the activity of mitochondrial enzymes using fluorogenic redox dyes such as resazurin. Furthermore, cellular counter screens exist for the evaluation of non-selective inhibition of linked reporter gene activity, such as firefly luciferase. Appropriate cell types can be equipped by stable transfection with a luciferase reporter gene whose expression is dependent on a constitutively active gene promoter, and such cells can be used as a counter-screen to eliminate non-selective inhibitors.
The compounds of formula (I) were examined for activity in the inhibition of HCV RNA replication in a cellular assay. […] The cellular assay was based on a bicistronic expression construct, as described by Lohmann et al. (1999) Science vol. 285 pp. 110-113 with modifications described by Krieger et al. (2001) Journal of Virology 75: 4614-4624, in a multi-target screening strategy. In essence, the method was as follows.
The assay utilized the stably transfected cell line Huh-7 luc/neo (hereafter referred to as Huh-Luc). This cell line harbors an RNA encoding a bicistronic expression construct comprising the wild type NS3-NS5B regions of HCV type 1b translated from an Internal Ribosome Entry Site (IRES) from encephalomyocarditis virus (EMCV), preceded by a reporter portion (FfL-luciferase), and a selectable marker portion (neo^R, neomycine phosphotransferase). The construct is bordered by 5′ and 3′ NTRs (non-translated regions) from HCV type 1b. Continued culture of the replicon cells in the presence of G418 (neo^R) is dependent on the replication of the HCV RNA. The stably transfected replicon cells that express HCV RNA, which replicates autonomously and to high levels, encoding inter alia luciferase, are used for screening the antiviral compounds.
The replicon cells were plated in 384 well plates in the presence of the test and control compounds which were added in various concentrations. Following an incubation of three days, HCV replication was measured by assaying luciferase activity (using standard luciferase assay substrates and reagents and a Perkin Elmer ViewLux™ ultraHTS microplate imager). Replicon cells in the control cultures have high luciferase expression in the absence of any inhibitor. The inhibitory activity of the compound on luciferase activity was monitored on the Huh-Luc cells, enabling a dose-response curve for each test compound. EC50 values were then calculated, which value represents the amount of the compound required to decrease by 50% the level of detected luciferase activity, or more specifically, the ability of the genetically linked HCV replicon RNA to replicate.

[4] = molecular target: full-length hepatitis C NS3 protease enzyme (HCV NS3/4A protease complexes) (Hepatitis C virus genotype 1a, UniProt P27958); experiment: Inhibition assay (enzymatic assay) of HCV NS3/4A protease; type: biochemical; conditions: enzyme 1 nM, 25 μM NS4A cofactor, 0.5 μM depsipeptide substrate, 30° C., competitive model
Experimental: The aim of this in vitro assay is to measure the inhibition of HCV NS3/4A protease complexes by the compounds of the present invention. This assay provides an indication of how effective compounds of the present invention would be in inhibiting HCV NS3/4A proteolytic activity.
The inhibition of full-length hepatitis C NS3 protease enzyme was measured essentially as described in Poliakov, 2002 Prot Expression & Purification 25 363 371. Briefly, the hydrolysis of a depsipeptide substrate, Ac-DED(Edans)EEAbuψ[COO]ASK(Dabcyl)-NH2 (AnaSpec, San José, USA), was measured spectrofluorometrically in the presence of a peptide cofactor, KKGSVVIVGRIVLSGK (Åke Engström, Department of Medical Biochemistry and Microbiology, Uppsala University, Sweden). [Landro, 1997 #Biochem 36 9340-9348]. The enzyme (1 nM) was incubated in 50 mM HEPES, pH 7.5, 10 mM DTT, 40% glycerol, 0.1% n-octyl-D-glucoside, with 25 μM NS4A cofactor and inhibitor at 30° C. for 10 min, whereupon the reaction was initiated by addition of 0.5 μM substrate. Inhibitors were dissolved in DMSO, sonicated for 30 sec. and vortexed. The solutions were stored at −20° C. between measurements.
The final concentration of DMSO in the assay sample was adjusted to 3.3%. The rate of hydrolysis was corrected for inner filter effects according to published procedures. [Liu, 1999 Analytical Biochemistry 267 331-335]. Ki values were estimated by non-linear regression analysis (GraFit, Erithacus Software, Staines, MX, UK), using a model for competitive inhibition and a fixed value for Km (0.15 μM). A minimum of two replicates was performed for all measurements.

[5] = 14-membered ring, Hoveyda-Grubbs I, with chain assembly

Sequence of full-length hepatitis C NS3 protease enzyme (HCV NS3/4A protease complexes) (P27958 1027-1657, one chain of several): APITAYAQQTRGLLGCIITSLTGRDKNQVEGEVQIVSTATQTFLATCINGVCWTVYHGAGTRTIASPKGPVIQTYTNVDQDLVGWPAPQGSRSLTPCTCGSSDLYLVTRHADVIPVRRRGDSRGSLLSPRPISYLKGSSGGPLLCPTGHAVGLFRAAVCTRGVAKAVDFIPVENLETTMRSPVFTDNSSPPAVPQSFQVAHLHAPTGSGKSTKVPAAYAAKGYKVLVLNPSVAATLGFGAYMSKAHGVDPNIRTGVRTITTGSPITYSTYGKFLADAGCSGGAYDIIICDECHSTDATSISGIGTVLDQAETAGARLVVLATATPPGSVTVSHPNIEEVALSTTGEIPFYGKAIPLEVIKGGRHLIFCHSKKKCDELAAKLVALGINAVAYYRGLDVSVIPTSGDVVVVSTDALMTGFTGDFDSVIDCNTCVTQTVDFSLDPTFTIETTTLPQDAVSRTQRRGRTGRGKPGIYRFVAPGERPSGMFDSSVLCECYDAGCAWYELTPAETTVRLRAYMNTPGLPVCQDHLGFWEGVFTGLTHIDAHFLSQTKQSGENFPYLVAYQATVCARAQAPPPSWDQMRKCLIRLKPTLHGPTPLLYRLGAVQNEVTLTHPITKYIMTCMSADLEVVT

Compound `CCOC(=O)C12CC1C=CCCCCCN(Cc1ccc(OC)cc1)C(=O)N1CC(OC(=O)c3ccc([N+](=O)[O-])cc3)CC1C(=O)N2` (stereo not drawn) has a ring closure, isolated yield ([1]; from C=CCCCCCN(Cc1ccc(OC)cc1)C(=O)N1CC(OC(=O)c2ccc([N+](=O)[O-])cc2)CC1C(=O)NC1(C(=O)OCC)CC1C=C, 15-membered ring, Hoveyda-Grubbs II (5 mol%), then LiOH, 0.74 mM, 2 steps) of 61%.

In the case of `CCOC(=O)C12CC1C=CCCCCN(C)C(=O)C1CC(Oc3nc(-c4ccc(OC)cc4)nc4c(C)c(OC)ccc34)CC1C(=O)N2` (stereo not drawn), the ring closure, isolated yield ([1]; from C=CCCCCN(C)C(=O)C1CC(Oc2nc(-c3ccc(OC)cc3)nc3c(C)c(OC)ccc23)CC1C(=O)NC1(C(=O)OCC)CC1C=C, 14-membered ring, Hoveyda-Grubbs II, 1.71 mM, 16.0 h) is reported as 75%.

`CCOC(=O)C12CC1C=CCCCCN(C)C(=O)C1CC(Oc3nc(-c4cccc(F)c4)nc4c(C)c(OC)ccc34)CC1C(=O)N2` (stereo not drawn) gave a ring closure, isolated yield ([1]; from C=CCCCCN(C)C(=O)C1CC(Oc2nc(-c3cccc(F)c3)nc3c(C)c(OC)ccc23)CC1C(=O)NC1(C(=O)OCC)CC1C=C, 14-membered ring, Hoveyda-Grubbs II, 1.49 mM, 16.0 h) of 70%.

`CN1CCCCC=CC2CC2(C(=O)NS(=O)(=O)C2CC2)NC(=O)C2CC(Oc3nc(-c4ccccc4)nc4ccccc34)CC2C1=O` (stereo not drawn) showed a ring closure, yield after HPLC ([2]; from 4-(2-Phenyl-quinazolin-4-yloxy)-cyclopentane-1,2-dicarboxylic acid 1-[(1 cyclo-propanesulfonecarbonyl-2-vinylcyclopropyl)-amide]2-(hex-5-enylmethylamide), 1.72 mM, 150.0 °C) of 29%.

For `CN1CCCCC=CC2CC2(C(=O)NS(=O)(=O)C2CC2)NC(=O)C2CC(Oc3nc(N4CCOCC4)nc4ccccc34)CC2C1=O` (stereo not drawn), the ring closure, yield after HPLC ([2]; from 4-(2-Morpholin-4-yl-quinazolin-4-yloxy)-cyclopentane-1,2-dicarboxylic acid 1-[(1-cyclopropanesulfonylaminocarbonyl-2-vinyl-cyclopropyl)-amide]2-(hex-5-enyl-methyl-amide), 1.63 mM, 150.0 °C) was 56%.

`CN1CCN(c2nc(OC3CC4C(=O)NC5(C(=O)NS(=O)(=O)C6CC6)CC5C=CCCCCN(C)C(=O)C4C3)c3ccccc3n2)CC1` (stereo not drawn) gave a ring closure, yield after HPLC ([2]; from 4-[2-(4-Methyl-piperazin-1-yl)-quinazolin-4-yloxy]-cyclopentane-1,2-dicarboxylic acid 1-[(1-cyclopropanesulfonylaminocarbonyl-2-vinyl-cyclopropyl)amide]2-(hex-5-enyl-methyl-amide), 1.61 mM, 150.0 °C) of 22%.

Compound `COc1ccc2c(OC3CC4C(=O)NC5(C(=O)O)CC5C=CCCCCN(C)C(=O)N4C3)nc(-c3ccc(F)cc3)nc2c1C` (stereo not drawn) has a ring closure, isolated yield [1, 5] of 20%.

With `COc1ccc2c(OC3CC4C(=O)NC5(C(=O)O)CC5C=CCCCCN(C)C(=O)N4C3)ncnc2c1C` (stereo not drawn) the ring closure, isolated yield [1, 5] was 8%.

Work on “17-(7-Methoxy-2-phenyl-quinazolin-4-yloxy-13-methyl-2,14-dioxo-3,13-diazatricyclo[13.3.0.0*4,6*]octadec-7-ene-4-carboxylic acid ethyl ester” yielded a ring closure, isolated yield ([1]; 14-membered ring, Hoveyda-Grubbs I, 1.1 mM) of 40%.

“17-[2-(4-Isopropyl-thiazol-2-yl)-7-methoxy-quinazolin-4-yloxy]-13-methyl-2,14-dioxo-3,13-diaza-tricyclo[13.3.0.0*4,6*]octadec-7-ene-4-carboylic acid ethyl ester” showed a ring closure, isolated yield ([1]; 14-membered ring, Hoveyda-Grubbs II, 1.45 mM, 90.0 °C) of 46%.

Compound `COc1ccc2c(O[C@@H]3C[C@H]4C(=O)N[C@]5(C(=O)NS(=O)(=O)C6CC6)C[C@H]5/C=C\CCCCN(C)C(=O)[C@@H]4C3)nc(-c3cc(F)cc(F)c3)nc2c1C` [Compound 170, Cyclopropanesulfonic acid {17-[2-(3,5-difluoro-phenyl)-7-methoxy-8-methyl-quinazolin-4-yloxy]-13-methyl-2,14-dioxo-3,13-diaza-tricyclo[13.3.0.0*4,6*]octadec-7-ene-4-carbonyl}-amide] has an EC50 ([3]; Hepatitis C virus, Huh-7, 72 h) of 0.5 to 199 nM and a Ki [4] of 5 to 99.9 nM.

In the case of `COc1ccc2c(O[C@@H]3C[C@H]4C(=O)N[C@]5(C(=O)NS(=O)(=O)C6CC6)C[C@H]5/C=C\CCCCCNC(=O)N4C3)nc(-c3ccccc3)nc2c1C` [Compound 174, Cyclopropanesulfonic acid [18-(7-methoxy-8-methyl-2-phenyl-quinazolin-4-yloxy)-2,15-dioxo-3,14,16-triaza-tricyclo[14.3.0.0*4,6*]nonadec-7-ene-4-carbonyl]-amide], the EC50 ([3]; Hepatitis C virus, Huh-7, 72 h) is reported as 0.5 to 199 nM and the Ki [4] is reported as 0.1 to 4.9 nM.

Compound `COc1ccc2c(O[C@@H]3C[C@H]4C(=O)N[C@]5(C(=O)NS(=O)(=O)C6(C)CC6)C[C@H]5/C=C\CCCCCNC(=O)N4C3)nc(-c3ccccc3)nc2c1C` [Compound 176, 1-Methyl-cyclopropanesulfonic acid [18-(7-methoxy-8-methyl-2-phenyl-quinazolin-4-yloxy)-2,15-dioxo-3,14,16-triaza-tricyclo[14.3.0.0*4,6*]nonadec-7-ene-4-carboyl]-amide] has an EC50 ([3]; Hepatitis C virus, Huh-7, 72 h) of 0.5 to 199 nM and a Ki [4] of 0.1 to 4.9 nM.

Compound `COc1ccc2c(O[C@@H]3C[C@H]4C(=O)N[C@]5(C(=O)NS(=O)(=O)C6CC6)C[C@H]5/C=C\CCCCN(C)C(=O)N4C3)nc(-c3ccncc3)nc2c1C` [Compound 179, Cyclopropanesulfonic acid [17-(7-methoxy-8-methyl-2-pyridin-4-yl-quinazolin-4-yloxy)-13-methyl-2,14-dioxo-3,13,15-triaza-tricyclo[13.3.0.0*4,6*]octadec-7-ene-4-carbonyl]-amide] has an EC50 ([3]; Hepatitis C virus, Huh-7, 72 h) of 0.5 to 199 nM and a Ki [4] of 0.1 to 4.9 nM.

“Cyclopropanesulfonic acid {13-methyl-2,14-dioxo-17-[2-(5H-pyrazol-1-yl)-quinazolin-4-yloxy]-3,13-diaza-tricyclo[13.3.0.0*4,6*]octadec-7-ene-4-carbonyl-amide [Compound 70]” gave an EC50 [3] greater than 10000 nM and a Ki [4] greater than 1000 nM.

“Cyclopropanesulfonic acid {17-[2-(4-isopropyl-thiazol-2-yl)-quinazolin-4-yloxy-]-13-methyl-2,14-dioxo-3,13-diaza-tricyclo[13.3.0.0*4,6*]octadec-7-ene-4-carbonyl}-amide” showed a ring closure, yield after HPLC ([2]; 1.67 mM, 15.0 °C) of 64%.
